Where a name gives a salt, the structure may show the parent alone.
Test: not given

Structure (SMILES) | melting point
CCC[C@@H](C)C[C@H](N)CC(=O)O.Cl | 142.5 to 142.7 °C
CCCC(C)(C)CC(CN)C(=O)O.Cl (stereo not drawn) | 229.5 to 231 °C
CCCC[C@@H](C)C[C@H](N)CC(=O)O (as salt: hydrochloride) | 142.5 to 143.3 °C
CCC[C@@H](C)C[C@H](CN)C(=O)O (as salt: hydrochloride) | 226.3 to 228 °C
CCCC(C)(C)C[C@H](N)CC(=O)O (as salt: hydrochloride) (hydrate or solvate) | 194.2 to 195.2 °C

Test: Plasma concentration (Cmax) of gabapentin in the rat

Structure (SMILES) | Cmax
NCC1(CC(=O)O)CCCCC1 [gabapentin, 1-(aminomethyl)-cyclohexylacetic acid] | 520 to 10500 ng/mL

— US20050065176A1, “Combinations” (priority 2003, published 2005)
